Measured values from patent EP4389113A1, “DOSAGE FORM FOR INTRAMEDULLARY INJECTION OR IMPLANTATION COMPRISING ELTROMBOPAG FOR USE IN THE IMPROVEMENT OF HEMATOPOIETIC STEM CELL TRANSPLANTATION” (PK MED, priority 2022, dated 2024).

Assays:
[1] = after oral administration of a 50 mg tablet; cited from earlier work
human MMP-8 = molecular target: T1, human MMP-8 (Homo sapiens, UniProt P22894); test: Proteolysis of SDF-1α by activated MMP-8, multiplex western blot; type: biochemical
T1 construct: purchased R&D systems 908-MP
T1 sequence (P22894 101-467): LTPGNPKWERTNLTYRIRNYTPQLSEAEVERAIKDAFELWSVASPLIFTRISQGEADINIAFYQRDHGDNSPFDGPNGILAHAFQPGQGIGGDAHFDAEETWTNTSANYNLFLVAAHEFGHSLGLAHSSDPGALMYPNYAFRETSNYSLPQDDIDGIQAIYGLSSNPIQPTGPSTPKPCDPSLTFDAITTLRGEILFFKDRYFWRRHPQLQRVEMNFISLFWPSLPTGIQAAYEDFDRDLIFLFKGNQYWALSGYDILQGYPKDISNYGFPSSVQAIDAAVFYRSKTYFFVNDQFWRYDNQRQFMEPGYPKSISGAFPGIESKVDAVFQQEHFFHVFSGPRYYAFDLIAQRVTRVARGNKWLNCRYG
Method: (§1) • Particle size was determined using a Malvern Mastersizer MS3000 laser diffraction particle size analyzer. A 1 mg/ml microparticles in deionized water preparation was introduced in the apparatus and the measurement run 3 times. The results shown in the examples are the mean of the three measures. • Eltrombopag microparticle drug load was determined by first solubilizing 10 mg of drug-loaded polymeric microparticles in 2,5 mL of an acetonitrile/water mixture at a 80/20 v/v ratio. The medium was then centrifuged for 15 min at 4000 rpm and the supernatant filtrated through a 0.45 µm PTFE filter (Acrodisc PTFE). A 2 ml aliquot of the filtrated supernatant was then analyzed by HPLC to determine the microparticle drug load. HPLC analysis was conducted using a silica-based reversed-phase C18 column [Kinetex C18, 100mm × 4,6 mm, 2,6 µm particle size] and a mobile phase consisting in [acetonitrile/ammonium formate (10 mM) 80/20 v/v adjusted at pH 2]. The flow rate was set at 0,5 mL/min, the injection volume was 10µL and the UV detection was set at 244 nm. • For incubation of Eltrombopag olamine with activated human proteases, proMMP-8 and pro MMP-9 proteases were first activated. Human proMMP-8 (Cat. no. 908-MP, R&D systems) at 100 µg/ml in buffer containing 50 mM Tris, 150 mM NaCl (sodium chloride), 5 mM CaCl2 (calcium chloride) and 0.01% tween 20 (pH 7.6) was activated by incubation with 1 mM p-aminophenylmercuric acetate for 1h at 37°C. Human proMMP-9 was expressed in Sf9 cells, purified by gelatin-sepharose chromatography and activated by incubation with the catalytic domain of MMP-3 (cat. No. 444217, Merck Millipore). Specifically, human proMMP-9 at 920 µg/ml in the same described buffer as for MMP-8 activation was incubated with the catalytic domain of MMP-3 at a molar ratio of 1/100 (MMP-3/MMP-9) for 2h at 37°C in. The final concentration of MMP-9 was 10 µM and the final concentration of MMP-3 was 0.1 µM. Concentrated eltrombopag olamine solution was prepared by solubilization in water at a concentration of 10 mg/ml for 24h on rotor at 4°C, and further diluted at the final concentration needed. Activated MMP-8 or MMP-9 were then incubated at a final concentration of 625 nM in Eltrombopag olamine at different concentrations (50 µM, 10 µM, 1 µM and 0.1 µM) in a final volume of 3µl for 30 minutes at 37°C in calcium-free buffer containing 50 mM Tris, 150 mM NaCl, 0.01% tween 20 (pH 7.6) using low protein-binding tubes (Protein LoBind tubes, Eppendorf). • Incubation of human SDF-1α (Cat. no. 300-28A, Peprotech) in the solution containing the activated human proteases and eltrombopag olamine was done at a MMP/SDF-1 molar ratio of 1/5 in the same calcium-free buffer and tubes described, with a final SDF-1 α concentration of 3.125 µM and a final volume of 4µl at 37°C for 2h. A negative control without eltrombopag olamine was similarly prepared. • SDF-1 proteolysis was analyzed by multiplex western blot. All samples were diluted in reducing loading buffer (10% β-mercaptoethanol, 0.1% bromophenol blue, 4% SDS (sodium dodecyl sulfate), 20% glycerol, 125 mM Tris, pH 6.8) and boiled at 90°C for 20 min. Next, the equivalent of 100 ng SDF-1 was loaded onto Novex 16% tricine gels (Cat. no. EC6695BOX, Invitrogen). The Chameleon Duo Pre-stained Protein Ladder was used as a molecular weight using 6ul in one well. Proteins in the samples were separated by denaturing SDS-PAGE using tricine running buffer (100 mM Tris, 100 mM Tricine, 0.1% SDS, pH 8.3) under a constant voltage of 120V (±60 min). After electrophoresis, proteins were transferred to polyvinylidene difluoride (PVDF) membranes with the Trans-Blot Turbo Transfer System (Biorad) with Trans-Blot Turbo RTA Mini 0.45 µm low fluorescence PVDF Transfer Kit (Cat. No. 1704274, Biorad). […]

human MMP-9 = molecular target: T2, human MMP-9 (Homo sapiens, UniProt P14780); test: Proteolysis of SDF-1α by activated MMP-9, multiplex western blot; type: biochemical
T2 construct: made in house; host or cells: Sf9 cells
T2 sequence (P14780 107-707 limits assumed): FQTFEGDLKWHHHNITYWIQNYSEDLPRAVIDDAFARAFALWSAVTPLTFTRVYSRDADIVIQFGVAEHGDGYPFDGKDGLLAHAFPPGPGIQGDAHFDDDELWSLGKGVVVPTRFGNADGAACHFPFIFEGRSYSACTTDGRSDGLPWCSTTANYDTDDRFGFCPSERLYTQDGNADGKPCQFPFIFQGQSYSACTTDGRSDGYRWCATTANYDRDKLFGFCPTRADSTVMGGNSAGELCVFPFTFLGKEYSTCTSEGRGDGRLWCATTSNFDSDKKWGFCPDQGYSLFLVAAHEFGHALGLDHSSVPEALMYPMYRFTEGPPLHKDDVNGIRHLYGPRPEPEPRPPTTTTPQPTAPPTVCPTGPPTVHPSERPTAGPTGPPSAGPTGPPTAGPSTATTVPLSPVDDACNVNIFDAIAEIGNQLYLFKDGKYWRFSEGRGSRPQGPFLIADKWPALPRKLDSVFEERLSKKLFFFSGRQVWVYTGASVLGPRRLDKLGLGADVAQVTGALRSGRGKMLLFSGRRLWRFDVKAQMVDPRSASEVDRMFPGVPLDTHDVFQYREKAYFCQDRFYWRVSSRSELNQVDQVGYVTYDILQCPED
Method: as §1

[2] = SDF-1 plus MMP-8 plus 0.1 µM eltrombopag olamine
[3] = SDF-1 plus MMP-8 plus 1 µM eltrombopag olamine
[4] = SDF-1 plus MMP-8 plus 10 µM eltrombopag olamine
[5] = SDF-1 plus MMP-8 plus 50 µM eltrombopag olamine
[6] = SDF-1 plus MMP-9 plus 0.1 µM eltrombopag olamine
[7] = SDF-1 plus MMP-9 plus 1 µM eltrombopag olamine
[8] = SDF-1 plus MMP-9 plus 10 µM eltrombopag olamine
[9] = SDF-1 plus MMP-9 plus 50 µM eltrombopag olamine

In the case of `CC1=NN(c2ccc(C)c(C)c2)C(=O)/C1=N\Nc1cccc(-c2cccc(C(=O)O)c2)c1O` [EPAG, 3'-[(2Z)-[1-(3,4-dimethylphenyl)-1,5-dihydro-3-methyl-5-oxo-4H-pyrazol-4-ylidene]hydrazino]-2'-hydroxy-[1,1'-biphenyl]-3-carboxylic acid], the maximum plasmatic concentration [1] is listed as 14 µM.
In the case of `CC1=NN(c2ccc(C)c(C)c2)C(=O)/C1=N\Nc1cccc(-c2cccc(C(=O)O)c2)c1O.NCCO.NCCO` [eltrombopag olamine, 3'-{(2Z)-2-[1-(3,4-dimethylphenyl)-3-methyl-5-oxo-1,5-dihydro-4H-pyrazol-4-ylidene]hydrazino}-2'-hydroxy-3-biphenylcarboxylic acid - 2-aminoethanol (1:2)], the “intact SDF-1α retrieved” value (human MMP-8; MMP-8 in the presence of 50 µM eltrombopag olamine, only 3.5% in its absence) is reported as 30%, the “N-term intact SDF-1α (RFUs)” value (human MMP-8; [2]) is reported as 0,0006 RFUs and the “Ratio of intact/total SDF-1α” value (human MMP-8; [2]) is reported as 0,0001. For the same molecule, the “Total SDF-1α (RFUs)” value (human MMP-8; [2]) was 7,501 RFUs, the “N-term intact SDF-1α (RFUs)” value (human MMP-8; [3]) was 0,0001 RFUs and the “Ratio of intact/total SDF-1α” value (human MMP-8; [3]) was 0,0000. For the same molecule, the “Total SDF-1α (RFUs)” value (human MMP-8; [3]) was 7,986 RFUs, the “N-term intact SDF-1α (RFUs)” value (human MMP-8; [4]) was 0,0001 RFUs and the “Ratio of intact/total SDF-1α” value (human MMP-8; [4]) was 0,0000. The “Total SDF-1α (RFUs)” value (human MMP-8; [4]) was 6,989 RFUs, the “Ratio of intact/total SDF-1α” value (human MMP-8; [5]) was 0,0002 and the “Total SDF-1α (RFUs)” value (human MMP-8; [5]) was 10,430 RFUs. The “N-term intact SDF-1α (RFUs)” value (human MMP-8; SDF-1 plus MMP-8 plus 50 µM eltrombopag olamine, MMP/SDF-1α molar ratio 1/5, 37°C, 2h) was 0,0020 RFUs, the “intact SDF-1α retrieved” value (human MMP-9; MMP-9 in the presence of 50 µM eltrombopag olamine, only 20% in its absence) was 72% and the “N-term intact SDF-1α (RFUs)” value (human MMP-9; [6]) was 0,013 RFUs. For the same molecule, the “Ratio of intact/total SDF-1α” value (human MMP-9; [6]) was 0,003, the “Total SDF-1α (RFUs)” value (human MMP-9; [6]) was 3,951 RFUs and the “N-term intact SDF-1α (RFUs)” value (human MMP-9; [7]) was 0,012 RFUs. The “Ratio of intact/total SDF-1α” value (human MMP-9; [7]) was 0,003, the “Total SDF-1α (RFUs)” value (human MMP-9; [7]) was 3,644 RFUs and the “N-term intact SDF-1α (RFUs)” value (human MMP-9; [8]) was 0,010 RFUs. The “Ratio of intact/total SDF-1α” value (human MMP-9; [8]) was 0,002, the “Total SDF-1α (RFUs)” value (human MMP-9; [8]) was 4,142 RFUs and the “Ratio of intact/total SDF-1α” value (human MMP-9; [9]) was 0,007. For the same molecule, the “Total SDF-1α (RFUs)” value (human MMP-9; [9]) was 4,687 RFUs and the “N-term intact SDF-1α (RFUs)” value (human MMP-9; SDF-1 plus MMP-9 plus 50 µM eltrombopag olamine, MMP/SDF-1α molar ratio 1/5, 37°C, 2h) was 0,033 RFUs.
